Results as given in patent US20230212144A1, “5-MEMBERED HETEROARYL DERIVATIVE CONTAINING AT LEAST ONE N, AND PHARMACEUTICAL COMPOSITION FOR PREVENTING OR TREATING MENTAL DISORDERS, CONTAINING SAME AS ACTIVE INGREDIENT” (DAEGU-GYEONGBUK MEDICAL INNOVATION FOUNDATION, priority 2020, published 2023).

Key:
[1] = target: serotonin transporter (SERT) (Homo sapiens, UniProt P31645); test: Serotonin reuptake inhibition, [3H]-5-HT, cells transfected with 5-HT transporter cDNA; conditions: for Triple reuptake inhibition (Ratio %) SERT: compound 1 μM, relative to control without compound (100%), lower value = stronger inhibition
Chain of serotonin transporter (SERT) (P31645 whole entry, species assumed): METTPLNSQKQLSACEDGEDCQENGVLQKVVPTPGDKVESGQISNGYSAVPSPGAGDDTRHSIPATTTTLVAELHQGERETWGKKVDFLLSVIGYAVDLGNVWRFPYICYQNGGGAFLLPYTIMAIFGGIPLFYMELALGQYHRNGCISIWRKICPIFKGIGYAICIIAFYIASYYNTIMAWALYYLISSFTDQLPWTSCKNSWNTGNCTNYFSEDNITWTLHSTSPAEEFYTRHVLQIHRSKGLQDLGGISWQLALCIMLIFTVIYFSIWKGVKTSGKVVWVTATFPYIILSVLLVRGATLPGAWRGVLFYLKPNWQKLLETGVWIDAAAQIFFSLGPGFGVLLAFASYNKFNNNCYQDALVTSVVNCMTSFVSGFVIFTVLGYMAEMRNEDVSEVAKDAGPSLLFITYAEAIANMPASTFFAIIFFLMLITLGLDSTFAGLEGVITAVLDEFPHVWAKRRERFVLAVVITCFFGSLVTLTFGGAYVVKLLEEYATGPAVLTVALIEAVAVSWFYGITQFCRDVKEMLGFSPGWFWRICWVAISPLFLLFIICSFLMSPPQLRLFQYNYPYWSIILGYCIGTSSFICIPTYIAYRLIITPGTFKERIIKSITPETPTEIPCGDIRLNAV

[2] = target: norepinephrine transporter (NET) (Homo sapiens, UniProt P23975); test: Norepinephrine reuptake inhibition, [3H]-NE, cells transfected with NE transporter cDNA; conditions: for Triple reuptake inhibition (Ratio %) NET: compound 1 μM, relative to control without compound (100%), lower value = stronger inhibition
Chain of norepinephrine transporter (NET) (P23975 whole entry, species assumed): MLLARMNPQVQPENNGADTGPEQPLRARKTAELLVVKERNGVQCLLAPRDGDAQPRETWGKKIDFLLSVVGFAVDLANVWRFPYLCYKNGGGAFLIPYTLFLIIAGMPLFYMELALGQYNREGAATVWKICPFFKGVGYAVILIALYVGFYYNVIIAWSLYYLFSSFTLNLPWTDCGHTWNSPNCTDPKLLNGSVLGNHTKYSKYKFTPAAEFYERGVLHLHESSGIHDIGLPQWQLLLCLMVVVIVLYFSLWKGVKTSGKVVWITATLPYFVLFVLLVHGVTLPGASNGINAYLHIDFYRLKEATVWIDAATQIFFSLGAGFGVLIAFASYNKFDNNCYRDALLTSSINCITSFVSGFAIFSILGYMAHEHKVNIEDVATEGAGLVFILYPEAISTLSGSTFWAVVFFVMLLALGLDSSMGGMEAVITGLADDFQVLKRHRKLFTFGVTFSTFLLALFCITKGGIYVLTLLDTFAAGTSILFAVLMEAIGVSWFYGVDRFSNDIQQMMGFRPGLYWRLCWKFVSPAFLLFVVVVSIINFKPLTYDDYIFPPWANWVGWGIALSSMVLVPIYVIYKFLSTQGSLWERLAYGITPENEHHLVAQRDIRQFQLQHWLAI

[3] = target: dopamine transporter (DAT) (Homo sapiens, UniProt Q01959); test: Dopamine reuptake inhibition, [3H]-DA, HEK-293 cells transfected with dopamine transporter cDNA; conditions: for Triple reuptake inhibition (Ratio %) DAT: compound 1 μM, relative to control without compound (100%), lower value = stronger inhibition
Chain of dopamine transporter (DAT) (Q01959 whole entry, species assumed): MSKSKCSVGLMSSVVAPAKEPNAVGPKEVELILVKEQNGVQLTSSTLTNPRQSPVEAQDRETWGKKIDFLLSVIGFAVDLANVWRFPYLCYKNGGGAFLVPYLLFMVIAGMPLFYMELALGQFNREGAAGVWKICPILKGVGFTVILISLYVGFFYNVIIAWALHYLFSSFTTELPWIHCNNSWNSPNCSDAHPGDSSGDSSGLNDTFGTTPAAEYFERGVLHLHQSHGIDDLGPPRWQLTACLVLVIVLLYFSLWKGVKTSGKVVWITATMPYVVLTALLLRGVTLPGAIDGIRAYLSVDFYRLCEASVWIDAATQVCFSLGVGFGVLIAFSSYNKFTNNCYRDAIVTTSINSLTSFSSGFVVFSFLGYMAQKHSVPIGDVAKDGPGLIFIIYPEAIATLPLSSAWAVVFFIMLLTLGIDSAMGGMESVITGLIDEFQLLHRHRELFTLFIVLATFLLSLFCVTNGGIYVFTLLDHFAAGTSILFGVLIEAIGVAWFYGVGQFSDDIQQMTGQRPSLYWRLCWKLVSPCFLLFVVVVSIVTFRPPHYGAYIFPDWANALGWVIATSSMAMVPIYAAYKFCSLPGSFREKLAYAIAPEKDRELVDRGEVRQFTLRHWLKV

Structure (SMILES) | Triple reuptake inhibition (Ratio %) SERT [1] [%] | Triple reuptake inhibition (Ratio %) NET [2] [%] | Triple reuptake inhibition (Ratio %) DAT [3] [%] | IC50 [1] [nM] | IC50 [2] [nM] | IC50 [3] [nM]
c1ccc(CC2CCN(Cc3nnc(-c4ccccc4)[nH]3)CC2)cc1 [Example 9, 4-benzyl-1-((5-phenyl-4H-1,2,4-triazol-3-yl)methyl)piperidine] | 95.15 | 73.45 | 32.29 | – | – | –
COc1cc2cc(-c3nnc(CN4CCC(Cc5ccccc5)CC4)[nH]3)[nH]c2cc1OC [Example 12, 2-(5-((4-benzylpiperidin-1-yl)methyl)-4H-1,2,4-triazol-3-yl)-5,6-dimethoxy-1H-indole] | 63.05 | 3.38 | 5.96 | 1150 | 36 | 174
COc1ccc2[nH]c(-c3nnc(CN4CCC(Cc5ccccc5)CC4)[nH]3)cc2c1 [Example 13, 2-(5-((4-benzylpiperidin-1-yl)methyl)-4H-1,2,4-triazol-3-yl)-5-methoxy-1H-indole] | 60.60 | 4.78 | 10.00 | 1210 | 70 | –
Clc1ccc2[nH]c(-c3nnc(CN4CCC(Cc5ccccc5)CC4)[nH]3)cc2c1 [Example 14, 2-(5-((4-benzylpiperidin-1-yl)methyl)-4H-1,2,4-triazol-3-yl)-5-chloro-1H-indole] | 74.39 | 5.84 | 7.44 | 1660 | 173 | 16
Cc1ccc2[nH]c(-c3nnc(CN4CCC(Cc5ccccc5)CC4)[nH]3)cc2c1 [Example 15, 2-(5-((4-benzylpiperidin-1-yl)methyl)-4H-1,2,4-triazol-3-yl)-5-methyl-1H-indole] | 83.60 | 49.82 | 21.04 | 25000 | 1110 | 173
Fc1ccc2cc(-c3nnc(CN4CCC(Cc5ccccc5)CC4)[nH]3)[nH]c2c1 [Example 16, 2-(5-((4-benzylpiperidin-1-yl)methyl)-4H-1,2,4-triazol-3-yl)-6-fluoro-1H-indole] | 80.93 | 36.38 | 12.06 | 3650 | 501 | 48
N#Cc1ccc2[nH]c(-c3nnc(CN4CCC(Cc5ccccc5)CC4)[nH]3)cc2c1 [Example 17, 2-(5-((4-benzylpiperidin-1-yl)methyl)-4H-1,2,4-triazol-3-yl)-1H-indol-5-carbonitrile] | 50.31 | 11.66 | 9.25 | 945 | 226 | 83
COc1ccc2cc(-c3nnc(CN4CCC(Cc5ccccc5)CC4)[nH]3)[nH]c2c1 [Example 18, 2-(5-((4-benzylpiperidin-1-yl)methyl)-4H-1,2,4-triazol-3-yl)-6-methoxy-1H-indole] | 66.40 | 22.07 | 37.07 | 1580 | 611 | 76
